Assay [1] has as its system Hedgehog pathway activation on 10T1/2/Smo#3 cells (C3H10T1/2 cells transfected with human Smoothened receptor). Briefly: Hedgehog pathway activation on 10T1/2/Smo#3 cells measured by ALP activity. Type of assay: cell-based. Conditions: Mus musculus, C3H 10T1/2, 10T1/2/Smo#3 cells. On the procedure: Hedgehog conditioned media was obtained by transfecting 293H cells with the full length gene encoding human Sonic Hedgehog (hShh) inserted into the pCMV6 expression vector, which contains a neomycin selectable marker and expresses the protein of interest with a C-terminal FLAG affinity tag. After selection in G418 containing media, conditioned media from Hedgehog expressing clones were tested for the ability to activate the hedgehog-responsive GLi-luciferase reporter in the Shh Light II cell line obtained by license from John Hopkins University (Taipale J, et al. Effects of oncogenic mutations in Smoothened and Patched can be reversed by cyclopamine. Nature 406: 1005-1009, 2000).
C3H10T1/2 cells were transfected with a pCMV expression vector containing the full length gene sequence encoding the human Smoothened receptor. Pooled cells, designated 10T1/2/Smo#3, growing in G418 selection media responded to activation by 10-20% conditioned hShh media with an approximate 5-10 fold increase in alkaline phosphaste (ALP) activity over untransfected parent C3H10T1/2 cells as measured by the conversion of the free acid of 4-methylumbelliferyl phosphate to a fluorescent product.
A test compound library was screened against hShh and 500 nM SAG (a direct agonist of the Smoothened receptor) activated 10T1/2/Smo#3 cells and Shh Light II reporter cells for the ability to block Hedgehog pathway activation. Concurrently, cell viability was measured by utilizing Celltiter-Blue® (Promega, Madison Wis.) viability assay. Active compounds were defined as those that inhibited Hedgehog signaling by greater than 50% with no concurrent loss in cell viability.
Their inhibitory activity against Hedgehog pathway activation on 10T1/2/Smo#3 cells as measured by ALP activity and Shh Light II reporter cells as measured by luciferase activity is shown in Table 1 below. In Table 1, +++ stands for an IC50 value that is less than 0.3 μM, ++ between 0.3 and 3 μM, + between 3 and 30 μM.
Additional data for compounds of the invention is shown below in Table 2. Their inhibitory activities against Hedgehog pathway activation are shown as IC50 values in μM on 10T1/2/Smo#3 cells as measured by ALP activity, or on Shh Light II reporter cells as measured by luciferase activity (hShh activation).

For assay [2], the system named is Hedgehog pathway activation (GLi-luciferase reporter) in Shh Light II reporter cells. Briefly: Hedgehog pathway activation on Shh Light II reporter cells measured by luciferase activity. To be noted: Mus musculus, Shh Light II. The class given is cell-based. The essentials: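 Shh Light II reporter cells carrying a hedgehog-responsive GLi-luciferase reporter were stimulated either with 500 nM SAG, a direct Smoothened agonist, or with conditioned media containing human Sonic Hedgehog (hShh). Test compounds were evaluated for blocking this pathway activation, quantified by luciferase activity. Cell viability was monitored in parallel with the Celltiter-Blue® assay.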

[3] abbreviates: hShh activation, ALP activity, read-out: 10T1/2/Smo#3 ALP activity (hShh Activation).
Where [4] appears, read: measured by ALP activity, read-out: ALP (IC50, inhibition of Hedgehog pathway activation).
[5] abbreviates: SAG activation (500 nM SAG), read-out: Shh Light II luciferase activity (SAG activation).
Setting [6] is: hShh activation, read-out: Shh (IC50, inhibition of Hedgehog pathway activation).
[7] abbreviates: hShh activation, read-out: Shh Light II luciferase activity (hShh activation).

Where two headings read alike, the source gives them in different places.

The text below walks through data of patent US8871767B2, “2-arylimidazo[1,2-B]pyridazine, 2-phenylimidazo[1,2-A]pyridine, and 2-phenylimidazo[1,2-A]pyrazine derivatives” (Hengrui (USA) Ltd., priority 2010, dated 2014).

On to `Cc1ccc(-c2cn3nc(-c4cc(C#N)ccc4C)ccc3n2)cc1NC(=O)C(C)(C)C` [Example 450, N-(5-(6-(5-cyano-2-methylphenyl)imidazo[1,2-b]pyridazin-2-yl)-2-methylphenyl)pivalamide], for which the IC50 is below 300 nM in assay [1] (setting [3]); 337 nM in assay [1] (setting [4]); below 300 nM in assay [2] (setting [5]); 322 nM in assay [2] (setting [6]); below 300 nM in assay [2] (setting [7]).

For `CC(C)(C)C(=O)Nc1cc(-c2cn3nc(-c4cccnc4C(F)(F)F)ccc3n2)c(F)cc1F` [Example 652, N-(2,4-difluoro-5-(6-(2-(trifluoromethyl)pyridin-3-yl)imidazo[1,2-b]pyridazin-2-yl)phenyl)pivalamide], the IC50 in assay [1] (setting [4]) was 36 nM; in assay [2] (setting [6]), 34 nM.

On to `Cc1ccc(-c2cn3nc(-c4cccc(C=CC(=O)O)c4)ccc3n2)cc1NC(=O)C(C)(C)C` [compound 554], for which the IC50 in assay [1] (setting [3]) was 300 to 3000 nM; in assay [1] (setting [4]) it was 1190 nM; in assay [2] (setting [5]), 3000 to 30000 nM; in assay [2] (setting [6]), 316 nM; in assay [2] (setting [7]), below 300 nM.

As for `CC(C)(C)OC(=O)NC1CCN(c2ccc3nc(-c4ccc(C(F)(F)F)c(NC(=O)C(C)(C)C)c4)cn3n2)C1` (stereo not shown) [Example 297, tert-butyl 1-(2-(3-pivalamido-4-(trifluoromethyl)phenyl)imidazo[1,2-b]pyridazin-6-yl)pyrrolidin-3-ylcarbamate], the IC50 in assay [1] (setting [4]) is 463 nM; in assay [2] (setting [6]) it was 452 nM.

As for `CC(C)OC(=O)Nc1cc(-c2cn3nc(-c4cccnc4C(F)(F)F)ccc3n2)ccc1F` [Example 683, isopropyl 2-fluoro-5-(6-(2-(trifluoromethyl)pyridin-3-yl)imidazo[1,2-b]pyridazin-2-yl)phenylcarbamate], the IC50 in assay [1] (setting [4]) was determined as 2550 nM; in assay [2] (setting [6]), 559 nM.

Turning to `CC(C)Oc1ccc2nc(-c3ccc(C(F)(F)F)c(NC(=O)C(C)(C)C)c3)cn2n1` [Example 181, N-(5-(6-isopropoxyimidazo[1,2-b]pyridazin-2-yl)-2-(trifluoromethyl)phenyl)pivalamide], the IC50 in assay [1] (setting [4]) worked out at 1070 nM; in assay [2] (setting [6]) it was 245 nM.

Turning to `CCOc1ccc2nc(-c3ccc(C(F)(F)F)c(NC(=O)c4cccnc4)c3)cn2n1` [Example 193, N-(5-(6-ethoxyimidazo[1,2-b]pyridazin-2-yl)-2-(trifluoromethyl)phenyl)nicotinamide], the IC50 was 2340 nM in assay [1] (setting [4]) and 7760 nM in assay [2] (setting [6]).

On to `Cc1ccc(-c2cn3ncccc3n2)cc1NC(=O)CC(C)(C)C` [Example 108, N-(5-(imidazo[1,2-b]pyridazin-2-yl)-2-methylphenyl)-3,3-dimethylbutanamide], for which the IC50 was determined as 5230 nM in assay [1] (setting [4]) and 2470 nM in assay [2] (setting [6]).

Regarding `CCOc1ccc2nc(-c3ccc(C(F)(F)F)c(NC(=O)Cc4ccccc4)c3)cn2n1` [Example 194, N-(5-(6-ethoxyimidazo[1,2-b]pyridazin-2-yl)-2-(trifluoromethyl)phenyl)-2-phenylacetamide], the results for the IC50 in assay [1] (setting [4]) and in assay [2] (setting [6]) were above 10000 nM and 1750 nM, respectively.

For `Cc1c(-c2ccccc2)nc2ccc(N3CCN(Cc4ccccn4)CC3)nn12` [Example 160, 3-methyl-2-phenyl-6-(4-(pyridin-2-ylmethyl)piperazin-1-yl)imidazo[1,2-b]pyridazine], the IC50 was 627 nM in assay [1] (setting [4]) and 2510 nM in assay [2] (setting [6]).

Consider `CC1(C(=O)Nc2cc(-c3cn4nc(-c5cccnc5C(F)(F)F)ccc4n3)ccc2F)CC1` [Example 674, N-(2-fluoro-5-(6-(2-(trifluoromethyl)pyridin-3-yl)imidazo[1,2-b]pyridazin-2-yl)phenyl)-1-methylcyclopropanecarboxamide], for which the IC50 in assay [1] (setting [4]) amounted to 140 nM; in assay [2] (setting [6]) it was 59 nM.

For the compound `CC(C)(C)C(=O)Nc1cc(-c2cn3nc(-c4cncnc4)ccc3n2)ccc1C(F)(F)F` [Example 372, N-(5-(6-(pyrimidin-5-yl)imidazo[1,2-b]pyridazin-2-yl)-2-(trifluoromethyl)phenyl)pivalamide], the values for the IC50 in assay [1] (setting [4]) and in assay [2] (setting [6]) were 633 nM and 827 nM, respectively.

Regarding `CN[C@@H]1CCN(c2ccc3nc(-c4ccc(C(F)(F)F)c(NC(=O)C(C)(C)C)c4)cn3n2)C1` [Example 634, (R)—N-(5-(6-(3-(methylamino)pyrrolidin-1-yl)imidazo[1,2-b]pyridazin-2-yl)-2-(trifluoromethyl)phenyl)pivalamide], the IC50 was 98 nM in assay [1] (setting [4]) and 120 nM in assay [2] (setting [6]).

Turning to `CC(C)(C)C(=O)Nc1cc(-c2cn3nc(N(CCO)CCO)ccc3n2)ccc1C(F)(F)F` [Example 359, N-(5-(6-(bis(2-hydroxyethyl)amino)imidazo[1,2-b]pyridazin-2-yl)-2-(trifluoromethyl)phenyl)pivalamide], the IC50 in assay [1] (setting [4]) was found to be 1900 nM; in assay [2] (setting [6]) it was 1850 nM.

For `Cc1ccc(-c2cn3nc(-c4ccc(C#N)cc4C(F)(F)F)ccc3n2)cc1NC(=O)C(C)(C)C` [Example 478, N-(5-(6-(4-cyano-2-(trifluoromethyl)phenyl)imidazo[1,2-b]pyridazin-2-yl)-2-methylphenyl)pivalamide], the IC50 in assay [1] (setting [4]) was 327 nM; in assay [2] (setting [6]), 80 nM.

As for `CCOc1ccc2nc(-c3ccc(C(F)(F)F)c(S(=O)(=O)NC(C)(C)C)c3)cn2n1` [Example 216, N-tert-butyl-5-(6-ethoxyimidazo[1,2-b]pyridazin-2-yl)-2-(trifluoromethyl)benzenesulfonamide], the figures for the IC50 in assay [1] (setting [4]) and in assay [2] (setting [6]) were 8280 nM and 8570 nM, respectively.

As to `CC(C)(C)C(=O)Nc1cc(-c2cn3nc(-c4ccncc4F)ccc3n2)ccc1C(F)(F)F` [Example 177, N-(5-(6-(3-fluoropyridin-4-yl)imidazo[1,2-b]pyridazin-2-yl)-2-(trifluoromethyl)phenyl)pivalamide], the IC50 in assay [1] (setting [4]) was 236 nM; in assay [2] (setting [6]), 357 nM.

On to `CCOc1ccc2nc(-c3ccc(C(F)(F)F)c(NC(=O)C(C)(C)C)c3)cn2n1` [Example 136, N-(5-(6-ethoxyimidazo[1,2-b]pyridazin-2-yl)-2-(trifluoromethyl)phenyl)pivalamide], for which the results for the IC50 in assay [1] (setting [4]) and in assay [2] (setting [6]) were 452 nM and 158 nM, respectively.

With `CC(C)OCCOc1ccc2nc(-c3ccc(C(F)(F)F)c(NC(=O)C(C)(C)C)c3)cn2n1` [Example 374, N-(5-(6-(2-isopropoxyethoxy)imidazo[1,2-b]pyridazin-2-yl)-2-(trifluoromethyl)phenyl)pivalamide], the IC50 in assay [1] (setting [4]) stood at 1280 nM; in assay [2] (setting [6]) it was 634 nM.

Consider `CC(C)(C)C(=O)Nc1cc(-c2cn3nc(OC4CCOCC4)ccc3n2)ccc1C(F)(F)F` [Example 310, N-(5-(6-(tetrahydro-2H-pyran-4-yloxy)imidazo[1,2-b]pyridazin-2-yl)-2-(trifluoromethyl)phenyl)pivalamide], for which the IC50 in assay [1] (setting [4]) is 1780 nM; in assay [2] (setting [6]), 721 nM.

Consider `O=C(Nc1cc(-c2cn3nc(-c4cccnc4C(F)(F)F)ccc3n2)ccc1F)N1CC(F)(F)C1` [Example 684, 3,3-difluoro-N-(2-fluoro-5-(6-(2-(trifluoromethyl)pyridin-3-yl)imidazo[1,2-b]pyridazin-2-yl)phenyl)azetidine-1-carboxamide], for which the IC50 came to 356 nM in assay [1] (setting [4]) and 95 nM in assay [2] (setting [6]).

With `CCOc1ccc2nc(-c3ccc(C(F)(F)F)c(S(=O)(=O)NCc4ccccc4)c3)cn2n1` [Example 215, N-benzyl-5-(6-ethoxyimidazo[1,2-b]pyridazin-2-yl)-2-(trifluoromethyl)benzenesulfonamide], the IC50 in assay [1] (setting [4]) was 3120 nM; in assay [2] (setting [6]), above 10000 nM.

Regarding `Cc1ccc(-c2cn3nc(-c4cccnc4F)ccc3n2)cc1NC(=O)C(C)(C)C` [Example 265, N-(5-(6-(2-fluoropyridin-3-yl)imidazo[1,2-b]pyridazin-2-yl)-2-methylphenyl)pivalamide], the figures for the IC50 in assay [1] (setting [4]) and in assay [2] (setting [6]) were 82 nM and 83 nM, respectively.
